Source: US12704493B2 (priority 2020, dated 2026)

Legend:
[1] = system: electroactive microorganisms
[2] = system: electroactive microorganisms of the biosensor anode

With O=S(=O)([O-])[O-].[Cu+2] [Cu, CuSO4] the “change of open circuit voltage with each spike” value [1] was “reduced”.

With C=O [formaldehyde] the “decrease in the estimated open circuit voltage” value [2] was about 90%.
